This passage reports IC50 results from patent publication US10189839B2, “Tricyclic imidazole compounds as inhibitors of tryptophan hydroxylase” (ACTELION PHARMACEUTICALS LTD, priority 2013, dated 2019).

Each structure is given as a SMILES string.

In the assay the target is T1, full length human TPH1 (Homo sapiens, UniProt P17752).
T1 construct: To generate the enzyme, full length human TPH1 is cloned into the plasmid pET20b(+); made in house; host or cells: E. coli
T1 sequence (P17752 1-444): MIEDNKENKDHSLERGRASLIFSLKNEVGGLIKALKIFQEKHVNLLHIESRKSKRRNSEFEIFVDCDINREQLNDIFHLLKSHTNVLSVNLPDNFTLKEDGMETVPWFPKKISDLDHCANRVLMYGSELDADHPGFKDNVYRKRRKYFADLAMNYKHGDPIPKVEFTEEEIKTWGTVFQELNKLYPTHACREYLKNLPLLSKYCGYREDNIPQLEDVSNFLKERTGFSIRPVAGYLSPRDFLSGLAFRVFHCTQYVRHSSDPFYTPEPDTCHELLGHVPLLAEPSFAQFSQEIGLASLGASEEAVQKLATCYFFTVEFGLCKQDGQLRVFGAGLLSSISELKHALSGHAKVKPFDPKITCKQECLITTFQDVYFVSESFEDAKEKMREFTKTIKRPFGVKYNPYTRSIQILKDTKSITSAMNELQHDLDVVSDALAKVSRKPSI
The assay is described as follows: Biochemical in vitro assay using fluorescence readout (TPH1 enzyme activity). The following applies: Table 1, mean where determined several times. An excerpt:
Inhibitory activities on tryptophan hydroxylase 1 have been measured for each example compound using the following procedure:
Biochemical In Vitro Assay Using Fluorescence Readout
To generate the enzyme, full length human TPH1 is cloned into the plasmid pET20b(+) (Novagen) and expressed in E. coli. The bacterial cells are ruptured by sonication on ice and the lysate is cleared by centrifugation. The resulting protein in the pellet is re-extracted and TPH1 is purified from the obtained lysate by affinity chromatography using a pterin cosubstrate analog immobilized to the resin of the column. The protein is further purified by size exclusion chromatography to remove protein aggregates. The activity of TPH1 is determined by using a fluorescence assay. The enzyme activity assay is carried out at 15° C. with atmosphere oxygen for the duration of 60 minutes in a volume of 64 μl. The reaction is carried out in a 0.1M Tris-HCl buffer, adjusted to pH 7.6, containing 1 mM DTT, 0.2 mg/ml catalase, 100 μM (±)-6-methyl-5,6,7,8-tetrahydropterine dihydrochloride, 40 μM L-tryptophan, and 40-80 nM of TPH1. The reaction is started by bringing together L-tryptophan with all the other reaction substituents and stopped by quenching with perchloric acid (HClO4). The amount of 5-hydroxy-L-tryptophan produced during the enzymatic reaction is determined by fluorescence readout. Fluorescence, as determined at 540 nm when excited at 300 nm wavelength, increases proportionally to the 5-hydroxy-L-tryptophan formed. Compounds are prepared as 10 mM stock solution in DMSO, then diluted in 384-well plates using DMSO followed by a transfer of the dilutions into the assay plate. Fluorescence is measured for each well and the fluorescence at 540 nm wavelength is compared to the fluorescence of the vehicle in place of compound. Inhibitory activities of example compounds with respect to the TPH1 protein are determined by calculating the IC50 value (the concentration of compound needed to inhibit 50% of the enzyme activity). The calculated IC50 values may fluctuate depending on the daily biochemical assay performance. Fluctuations of this kind are known to those skilled in the art. In the case where IC50 values have been determined several times for the same compound, the mean is given.
The term IC50 denotes the point on the concentration scale where inhibition reaches its midpoint. Read a low IC50 as inhibition by little substance. The compound `CN(C)C(=O)c1ccc(OCC(=O)N2CCc3nc4n(c3C2c2ccc(Cl)cc2F)CCCC4)c(Cl)n1` (centres unmarked) [Example 1.1.1, 6-chloro-5-(2-(1-(4-chloro-2-fluorophenyl)-3,4,6,7,8,9-hexahydroimidazo[1,2-a:5,4-c′]dipyridin-2(1H)-yl)-2-oxoethoxy)-N,N-dimethylpicolinamide] returned an IC50 of 15 nM.

For the compound `O=C(COc1ccc(N2CCOCC2)nc1Cl)N1CCc2nc3n(c2C1c1ccc(Cl)cc1F)CCCC3` (centres unmarked) [Example 1.1.2, 1-(1-(4-chloro-2-fluorophenyl)-3,4,6,7,8,9-hexahydro-imidazo[1,2-a:5,4-c′]dipyridin-2(1H)-yl)-2-((2-chloro-6-morpholinopyridin-3-yl)oxy)ethanone], it took 7 nM to reach half-maximal inhibition (IC50). `CS(=O)(=O)Nc1ccc(OCC(=O)N2CCc3nc4n(c3C2c2ccc(Cl)cc2F)CCCC4)c(Cl)n1` (centres unmarked) [Example 1.1.3, N-(6-chloro-5-(2-(1-(4-chloro-2-fluorophenyl)-3,4,6,7,8,9-hexahydroimidazo[1,2-a:5,4-c′]dipyridin-2(1H)-yl)-2-oxoethoxy)pyridin-2-yl)methanesulfonamide] showed an IC50 of 26 nM. In turn, `CN(C(=O)c1ccc(OCC(=O)N2CCc3nc4n(c3C2c2ccc(Cl)cc2F)CCCC4)c(Cl)n1)C1CC1` (centres unmarked) [Example 1.1.4, 6-chloro-5-(2-(1-(4-chloro-2-fluorophenyl)-3,4,6,7,8,9-hexahydroimidazo[1,2-a:5,4-c′]dipyridin-2(1H)-yl)-2-oxoethoxy)-N-cyclopropyl-N-methylpicolinamide] gave an IC50 of 29 nM. The value for `O=C(COc1ccc(-c2ncco2)nc1Cl)N1CCc2nc3n(c2C1c1ccc(Cl)cc1F)CCCC3` (centres unmarked) [Example 1.1.5, 1-(1-(4-chloro-2-fluorophenyl)-3,4,6,7,8,9-hexahydro-imidazo[1,2-a:5,4-c′]dipyridin-2(1H)-yl)-2-((2-chloro-6-(oxazol-2-yl)pyridin-3-yl)oxy)ethanone] was 21 nM; that for `O=C(NC1CC1)c1ccc(OCC(=O)N2CCc3nc4n(c3C2c2ccc(Cl)cc2F)CCCC4)c(Cl)n1` (centres unmarked) [Example 1.1.6, 6-chloro-5-(2-(1-(4-chloro-2-fluorophenyl)-3,4,6,7,8,9-hexahydroimidazo[1,2-a:5,4-c′]dipyridin-2(1H)-yl)-2-oxoethoxy)-N-cyclopropylpicolinamide] was 19 nM. `CCN(C)C(=O)c1ccc(OCC(=O)N2CCc3nc4n(c3C2c2ccc(Cl)cc2F)CCCC4)c(Cl)n1` (centres unmarked) [Example 1.1.7, 6-chloro-5-(2-(1-(4-chloro-2-fluorophenyl)-3,4,6,7,8,9-hexahydroimidazo[1,2-a:5,4-c′]dipyridin-2(1H)-yl)-2-oxoethoxy)-N-ethyl-N-methylpicolinamide] yielded an IC50 of 25 nM. The value for `CC(C)N(C)C(=O)c1ccc(OCC(=O)N2CCc3nc4n(c3C2c2ccc(Cl)cc2F)CCCC4)c(Cl)n1` (centres unmarked) [Example 1.1.8, 6-chloro-5-(2-(1-(4-chloro-2-fluorophenyl)-3,4,6,7,8,9-hexahydroimidazo[1,2-a:5,4-c′]dipyridin-2(1H)-yl)-2-oxoethoxy)-N-isopropyl-N-methylpicolinamide] was 55 nM; that for `CN(c1ccc(OCC(=O)N2CCc3nc4n(c3C2c2ccc(Cl)cc2F)CCCC4)c(Cl)n1)S(C)(=O)=O` (centres unmarked) [Example 1.1.9, N-(6-chloro-5-(2-(1-(4-chloro-2-fluorophenyl)-3,4,6,7,8,9-hexahydroimidazo[1,2-a:5,4-c′]dipyridin-2(1H)-yl)-2-oxoethoxy)pyridin-2-yl)-N-methylmethanesulfonamide] was 25 nM. The compound `O=C(COc1ccc(N2CCCS2(=O)=O)nc1Cl)N1CCc2nc3n(c2C1c1ccc(Cl)cc1F)CCCC3` (centres unmarked) [Example 1.1.10, 1-(1-(4-chloro-2-fluorophenyl)-3,4,6,7,8,9-hexahydro-imidazo[1,2-a:5,4-c′]dipyridin-2(1H)-yl)-2-((2-chloro-6-(1,1-dioxidoisothiazolidin-2-yl)pyridin-3-yl)oxy)-ethanone] returned an IC50 of 17 nM. `CCc1nc(NS(C)(=O)=O)ccc1OCC(=O)N1CCc2nc3n(c2C1c1ccc(Cl)cc1F)CCCC3` (centres unmarked) [Example 1.1.11, N-(5-(2-(1-(4-chloro-2-fluorophenyl)-3,4,6,7,8,9-hexahydroimidazo[1,2-a:5,4-c′]dipyridin-2(1H)-yl)-2-oxoethoxy)-6-ethylpyridin-2-yl)methanesulfonamide]: half-maximal inhibition (IC50) was put at 8 nM. Compound `CCc1nc(C(=O)NC2CC2)ccc1OCC(=O)N1CCc2nc3n(c2C1c1ccc(Cl)cc1F)CCCC3` (centres unmarked) [Example 1.1.12, 5-(2-(1-(4-chloro-2-fluorophenyl)-3,4,6,7,8,9-hexahydroimidazo[1,2-a:5,4-c′]dipyridin-2(1H)-yl)-2-oxoethoxy)-N-cyclopropyl-6-ethylpicolinamide] came in with a concentration for half-maximal inhibition (IC50) of 9 nM. In the case of `COc1nc(NS(C)(=O)=O)ccc1OCC(=O)N1CCc2nc3n(c2C1c1ccc(Cl)cc1F)CCCC3` (centres unmarked) [Example 1.1.13, N-(5-(2-(1-(4-chloro-2-fluorophenyl)-3,4,6,7,8,9-hexahydroimidazo[1,2-a:5,4-c′]dipyridin-2(1H)-yl)-2-oxoethoxy)-6-methoxypyridin-2-yl)methanesulfonamide], half-maximal inhibition (IC50) required 347 nM. On to `O=C(COc1ccc(C2CC2)nc1Cl)N1CCc2nc3n(c2C1c1ccc(Cl)cc1F)CCCC3` (centres unmarked) [Example 1.1.14, 1-(1-(4-chloro-2-fluorophenyl)-3,4,6,7,8,9-hexahydroimidazo[1,2-a:5,4-c′]dipyridin-2(1H)-yl)-2-((2-chloro-6-cyclopropylpyridin-3-yl)oxy)ethanone], for which the IC50 turned out to be 16 nM.

Compound `CCc1nc(C)ccc1OCC(=O)N1CCc2nc3n(c2C1c1ccc(Cl)cc1F)CCCC3` (centres unmarked) [Example 1.1.15, 1-(1-(4-chloro-2-fluorophenyl)-3,4,6,7,8,9-hexahydroimidazo[1,2-a:5,4-c′]dipyridin-2(1H)-yl)-2-((2-ethyl-6-methylpyridin-3-yl)oxy)ethanone] gave an IC50 of 39 nM. On to `O=C(NC1CC1)c1ccc(OCC(=O)N2CCc3nc4n(c3[C@@H]2c2ccc(Cl)cc2F)CCCC4)c(Cl)n1` [Example 1.1.16, (S)-6-chloro-5-(2-(1-(4-chloro-2-fluorophenyl)-3,4,6,7,8,9-hexahydroimidazo[1,2-a:5,4-c′]dipyridin-2(1H)-yl)-2-oxoethoxy)-N-cyclopropylpicolinamide], for which half-maximal inhibition (IC50) was put at 12 nM.

The compound `CS(=O)(=O)Nc1ccc(OCC(=O)N2CCc3nc4n(c3[C@@H]2c2ccc(Cl)cc2F)CCCC4)c(Cl)n1` [Example 1.1.17, (S)-N-(6-chloro-5-(2-(1-(4-chloro-2-fluorophenyl)-3,4,6,7,8,9-hexahydroimidazo[1,2-a:5,4-c′]dipyridin-2(1H)-yl)-2-oxoethoxy)pyridin-2-yl)methanesulfonamide] showed an IC50 of 23 nM. For `CCc1nc(NS(C)(=O)=O)ccc1OCC(=O)N1CCc2nc3n(c2[C@@H]1c1ccc(Cl)cc1F)CCCC3` [Example 1.1.18, (S)-N-(5-(2-(1-(4-chloro-2-fluorophenyl)-3,4,6,7,8,9-hexahydroimidazo[1,2-a:5,4-c′]dipyridin-2(1H)-yl)-2-oxoethoxy)-6-ethylpyridin-2-yl)methanesulfonamide], half-maximal inhibition (IC50) required 8 nM.

Compound `CS(=O)(=O)Nc1ccc(OC2(C(=O)N3CCc4nc5n(c4C3c3ccc(Cl)cc3F)CCCC5)CC2)c(Cl)n1` (centres unmarked) [Example 1.1.19, N-(6-chloro-5-(1-(1-(4-chloro-2-fluorophenyl)-1,2,3,4,6,7,8,9-octahydroimidazo[1,2-a:5,4-c′]dipyridine-2-carbonyl)cyclopropoxy)pyridin-2-yl)methanesulfonamide] yielded an IC50 of 58 nM. As for `CS(=O)(=O)Nc1ccc(OCC(=O)N2CCc3nc4n(c3C2c2ccc(Cl)cc2F)CCCC4)c(C2CC2)n1` (centres unmarked) [Example 1.1.20, N-(5-(2-(1-(4-chloro-2-fluorophenyl)-3,4,6,7,8,9-hexahydroimidazo[1,2-a:5,4-c′]dipyridin-2(1H)-yl)-2-oxoethoxy)-6-cyclopropylpyridin-2-yl)methanesulfonamide], half-maximal inhibition (IC50) required 21 nM.
